Values after ≈ are worked out from the molar mass of the structure shown. Bridge positions count the residues as written; N and C are the ends. Square brackets hold non-standard residues; d marks the D form. Peptide text beside a SMILES is read from it. * marks the point of attachment. ξ: configuration not given here. dBip = N[C@H](Cc1ccc(-c2ccccc2)cc1)C(=O)O; Thr(3ξ) = CC(O)[C@H](N)C(=O)O; X1 = CC(C)CN1CCNC[C@H]1C(=O)*; Dab = NCC[C@H](N)C(=O)O; Dap = NC[C@H](N)C(=O)O
How the values were obtained:
Type in all cases: cell-based
Acinetobacter baumannii = tested on: Acinetobacter baumannii
In short: (§1)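 Values are minimum inhibitory concentrations in μg/mL, measured across a panel of up to nine strains of each Gram-negative pathogen, some Polymyxin-elevated or resistant.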

Escherichia coli = tested on: Escherichia coli
In short: as §1

Klebsiella pneumoniae = tested on: Klebsiella pneumoniae
In short: as §1

Pseudomonas aeruginosa = tested on: Pseudomonas aeruginosa
In short: as §1

HK-2 cells = tested on: HK-2 cells
Text: Values are reported relative to Polymyxin B.

[1] = tested on: Escherichia coli, Pseudomonas aeruginosa, Klebsiella pneumoniae and Acinetobacter baumannii; test: Susceptibility testing, comparisons in words across the Gram negative pathogens; details: versus comparator compound
Method: To evaluate the potency and spectrum of the compounds, susceptibility testing was performed against up to nine strains of each of the Gram negative pathogens, Escherichia coli, Pseudomonas aeruginosa, Klebsiella pneumoniae and Acinetobacter baumannii.

CC(C)C[C@@H]1NC(=O)[C@@H](Cc2ccc(-c3ccccc3)cc2)NC(=O)[C@H](CCN)NC(=O)[C@@H](NC(=O)[C@H](CN)NC(=O)[C@@H](NC(=O)[C@@H]2CNCCN2CC(C)C)C(C)O)CCNC(=O)[C@H]([C@@H](C)O)NC(=O)[C@H](CCN)NC(=O)[C@H](CCN)NC1=O (stereo partly shown) [Example 5] (X1-[Thr(3ξ)][Dap][Dab][Dab][dBip]L[Dab][Dab]T; lactam 3-C)
MIC A. baumanii 053 (Acinetobacter baumannii): 32 µg/mL (≈ 26.8 µM) | MIC A. baumanii 056 (Acinetobacter baumannii): 4 µg/mL (≈ 3.35 µM) | MIC A. baumanii ATCC BAA-747 (Acinetobacter baumannii): 0.125 µg/mL (≈ 0.105 µM) | MIC E. coli 058 (Escherichia coli): 1 µg/mL (≈ 0.838 µM) | MIC E. coli 059 (Escherichia coli): 1 µg/mL (≈ 0.838 µM) | MIC E. coli 060 (Escherichia coli): 2 µg/mL (≈ 1.68 µM) | MIC E. coli 061 (Escherichia coli): 8 µg/mL (≈ 6.7 µM) | MIC E. coli ATCC 25922 (Escherichia coli): 0.06 µg/mL (≈ 0.0503 µM) | MIC K. pneumoniae 063 (Klebsiella pneumoniae): 16 µg/mL (≈ 13.4 µM) | MIC K. pneumoniae 064 (Klebsiella pneumoniae): 4 µg/mL (≈ 3.35 µM) | MIC K. pneumoniae 065 (Klebsiella pneumoniae): 0.5 µg/mL (≈ 0.419 µM) | MIC K. pneumoniae 066 (Klebsiella pneumoniae): 8 µg/mL (≈ 6.7 µM) | MIC K. pneumoniae 067 (Klebsiella pneumoniae): 32 µg/mL (≈ 26.8 µM) | MIC K. pneumoniae ATCC 4352 (Klebsiella pneumoniae): 0.25 µg/mL (≈ 0.209 µM) | MIC P. aeruginosa 068 (Pseudomonas aeruginosa): 4 µg/mL (≈ 3.35 µM) | MIC P. aeruginosa 070 (Pseudomonas aeruginosa): 8 µg/mL (≈ 6.7 µM) | MIC P. aeruginosa ATCC 27853 (Pseudomonas aeruginosa): 0.5 µg/mL (≈ 0.419 µM) | HK-2 IC50 (HK-2 cells): 36 µg/mL | activity against polymyxin resistant strains [1]: significantly improves of activity against resistant strains
